Columns and labels:
[1] = target: Glutamate receptor ionotropic, NMDA 1 (Rattus norvegicus, UniProt P35439)
[2] = target: T1, Endothelin-1 receptor (Homo sapiens, UniProt P25101)
T1 sequence (P25101 whole entry): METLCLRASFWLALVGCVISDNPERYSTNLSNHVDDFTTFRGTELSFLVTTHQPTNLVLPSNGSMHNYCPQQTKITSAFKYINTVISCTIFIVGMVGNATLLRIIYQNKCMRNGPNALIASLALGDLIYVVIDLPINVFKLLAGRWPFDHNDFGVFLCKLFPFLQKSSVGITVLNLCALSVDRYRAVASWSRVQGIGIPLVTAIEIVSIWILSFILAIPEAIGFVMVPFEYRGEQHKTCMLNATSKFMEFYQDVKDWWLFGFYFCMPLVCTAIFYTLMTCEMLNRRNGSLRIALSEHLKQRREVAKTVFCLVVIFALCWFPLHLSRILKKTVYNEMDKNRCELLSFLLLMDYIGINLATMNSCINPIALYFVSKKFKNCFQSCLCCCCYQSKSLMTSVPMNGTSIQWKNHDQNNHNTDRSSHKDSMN

[3] = target: T2, Alpha-2B adrenergic receptor (Homo sapiens, UniProt P18089)
T2 sequence (P18089 whole entry): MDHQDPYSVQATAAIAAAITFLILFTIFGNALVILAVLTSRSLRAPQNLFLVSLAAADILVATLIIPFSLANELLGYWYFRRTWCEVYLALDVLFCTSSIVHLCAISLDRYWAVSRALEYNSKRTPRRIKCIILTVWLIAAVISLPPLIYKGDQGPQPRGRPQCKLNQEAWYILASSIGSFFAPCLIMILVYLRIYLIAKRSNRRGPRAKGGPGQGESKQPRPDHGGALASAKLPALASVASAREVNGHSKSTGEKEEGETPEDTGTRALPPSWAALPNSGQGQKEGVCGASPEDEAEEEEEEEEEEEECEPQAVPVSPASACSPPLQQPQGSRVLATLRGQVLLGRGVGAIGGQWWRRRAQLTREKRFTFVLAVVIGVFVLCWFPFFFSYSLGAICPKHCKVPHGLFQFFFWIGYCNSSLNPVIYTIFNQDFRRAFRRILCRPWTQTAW

[4] = target: T3, Muscarinic acetylcholine receptor M2 (Homo sapiens, UniProt P08172); assay type: functional, cell-based
T3 sequence (P08172 whole entry): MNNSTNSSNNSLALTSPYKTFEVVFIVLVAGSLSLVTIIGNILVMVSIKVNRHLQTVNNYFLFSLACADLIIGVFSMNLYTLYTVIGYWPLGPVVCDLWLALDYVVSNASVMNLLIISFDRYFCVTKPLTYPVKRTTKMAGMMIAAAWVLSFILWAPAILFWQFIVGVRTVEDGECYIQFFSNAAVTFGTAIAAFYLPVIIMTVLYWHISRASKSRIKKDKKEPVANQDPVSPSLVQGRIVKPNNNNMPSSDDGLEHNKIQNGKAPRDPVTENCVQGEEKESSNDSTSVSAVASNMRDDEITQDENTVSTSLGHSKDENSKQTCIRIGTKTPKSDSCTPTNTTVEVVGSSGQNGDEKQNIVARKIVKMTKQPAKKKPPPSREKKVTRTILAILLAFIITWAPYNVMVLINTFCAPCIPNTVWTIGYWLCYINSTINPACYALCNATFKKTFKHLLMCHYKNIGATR

[5] = target: Muscarinic acetylcholine receptor M3 (Homo sapiens, UniProt P20309)
Sequence of Muscarinic acetylcholine receptor M3 (P20309 whole entry): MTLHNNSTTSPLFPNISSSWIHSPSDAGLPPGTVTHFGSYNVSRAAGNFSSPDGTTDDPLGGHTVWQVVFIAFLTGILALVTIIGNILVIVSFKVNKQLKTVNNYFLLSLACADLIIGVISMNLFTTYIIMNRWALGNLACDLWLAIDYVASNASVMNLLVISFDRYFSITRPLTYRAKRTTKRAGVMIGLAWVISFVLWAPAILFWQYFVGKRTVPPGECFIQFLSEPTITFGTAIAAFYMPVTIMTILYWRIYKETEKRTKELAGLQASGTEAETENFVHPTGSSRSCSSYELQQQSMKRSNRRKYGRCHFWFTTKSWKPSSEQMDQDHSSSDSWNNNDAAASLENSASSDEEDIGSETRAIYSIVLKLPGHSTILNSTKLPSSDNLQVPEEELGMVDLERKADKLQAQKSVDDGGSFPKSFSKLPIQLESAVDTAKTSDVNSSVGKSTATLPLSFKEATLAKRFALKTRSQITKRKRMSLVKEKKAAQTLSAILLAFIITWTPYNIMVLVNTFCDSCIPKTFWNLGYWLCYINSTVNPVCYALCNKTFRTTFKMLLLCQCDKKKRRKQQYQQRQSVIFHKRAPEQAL

[6] = target: Sodium-dependent dopamine transporter (Homo sapiens, UniProt Q01959)
Sequence of Sodium-dependent dopamine transporter (Q01959 whole entry): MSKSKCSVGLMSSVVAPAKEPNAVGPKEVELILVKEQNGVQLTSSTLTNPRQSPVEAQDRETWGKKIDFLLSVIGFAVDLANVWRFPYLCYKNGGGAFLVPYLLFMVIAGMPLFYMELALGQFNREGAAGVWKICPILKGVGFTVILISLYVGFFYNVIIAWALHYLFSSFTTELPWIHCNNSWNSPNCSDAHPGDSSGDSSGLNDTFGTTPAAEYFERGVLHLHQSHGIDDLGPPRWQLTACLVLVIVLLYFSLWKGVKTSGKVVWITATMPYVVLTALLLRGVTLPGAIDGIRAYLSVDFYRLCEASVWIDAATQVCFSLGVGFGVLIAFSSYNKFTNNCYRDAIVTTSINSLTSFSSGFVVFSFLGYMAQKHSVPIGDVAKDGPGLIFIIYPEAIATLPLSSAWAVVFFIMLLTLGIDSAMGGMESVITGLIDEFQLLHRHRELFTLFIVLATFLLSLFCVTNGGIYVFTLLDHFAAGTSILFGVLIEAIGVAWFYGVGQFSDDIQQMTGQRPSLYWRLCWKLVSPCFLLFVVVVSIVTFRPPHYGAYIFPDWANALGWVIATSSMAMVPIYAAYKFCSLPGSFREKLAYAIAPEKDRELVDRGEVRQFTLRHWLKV

[7] = target: D(1A) dopamine receptor (Homo sapiens, UniProt P21728)
Sequence of D(1A) dopamine receptor (P21728 whole entry): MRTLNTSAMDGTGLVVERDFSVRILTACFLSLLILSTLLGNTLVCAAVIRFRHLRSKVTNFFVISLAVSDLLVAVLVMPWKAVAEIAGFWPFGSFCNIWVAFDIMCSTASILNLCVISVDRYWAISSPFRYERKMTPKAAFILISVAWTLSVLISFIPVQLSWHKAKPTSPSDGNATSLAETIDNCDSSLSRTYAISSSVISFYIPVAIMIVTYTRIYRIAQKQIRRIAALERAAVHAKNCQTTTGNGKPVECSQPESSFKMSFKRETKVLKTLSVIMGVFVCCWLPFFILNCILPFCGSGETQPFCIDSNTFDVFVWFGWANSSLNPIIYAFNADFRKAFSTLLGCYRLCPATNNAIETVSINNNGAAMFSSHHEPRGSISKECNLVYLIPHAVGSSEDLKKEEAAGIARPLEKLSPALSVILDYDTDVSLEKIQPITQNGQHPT

[8] = target: Mu-type opioid receptor (Homo sapiens, UniProt P35372)
Sequence of Mu-type opioid receptor (P35372 whole entry): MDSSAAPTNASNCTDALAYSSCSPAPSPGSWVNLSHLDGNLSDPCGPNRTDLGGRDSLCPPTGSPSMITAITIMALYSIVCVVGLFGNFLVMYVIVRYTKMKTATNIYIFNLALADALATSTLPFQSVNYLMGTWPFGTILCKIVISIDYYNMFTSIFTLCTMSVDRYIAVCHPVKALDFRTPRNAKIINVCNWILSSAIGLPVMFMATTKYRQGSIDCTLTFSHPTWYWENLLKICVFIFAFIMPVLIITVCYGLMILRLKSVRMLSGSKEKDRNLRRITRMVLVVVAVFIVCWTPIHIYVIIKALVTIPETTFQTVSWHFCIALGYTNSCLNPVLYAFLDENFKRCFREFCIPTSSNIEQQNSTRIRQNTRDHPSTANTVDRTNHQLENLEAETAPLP

[9] = target: T4, Amine oxidase [flavin-containing] A (Homo sapiens, UniProt P21397); assay type: functional
T4 sequence (P21397 whole entry): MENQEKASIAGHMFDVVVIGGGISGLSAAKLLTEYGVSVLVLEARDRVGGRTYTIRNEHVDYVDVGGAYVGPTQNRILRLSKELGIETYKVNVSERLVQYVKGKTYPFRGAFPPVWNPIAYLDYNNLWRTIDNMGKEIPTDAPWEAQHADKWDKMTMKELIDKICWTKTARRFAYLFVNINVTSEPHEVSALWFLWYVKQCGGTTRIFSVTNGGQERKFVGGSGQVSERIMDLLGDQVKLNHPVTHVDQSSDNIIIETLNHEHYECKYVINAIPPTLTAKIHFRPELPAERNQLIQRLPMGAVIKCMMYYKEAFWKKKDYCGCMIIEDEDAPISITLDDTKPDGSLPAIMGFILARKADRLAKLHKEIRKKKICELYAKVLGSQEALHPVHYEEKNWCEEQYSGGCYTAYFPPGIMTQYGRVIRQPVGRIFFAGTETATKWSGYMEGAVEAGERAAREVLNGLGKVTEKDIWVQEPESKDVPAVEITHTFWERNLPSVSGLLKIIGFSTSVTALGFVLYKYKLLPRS

[10] = target: D(3) dopamine receptor (Homo sapiens, UniProt P35462)
Sequence of D(3) dopamine receptor (P35462 whole entry): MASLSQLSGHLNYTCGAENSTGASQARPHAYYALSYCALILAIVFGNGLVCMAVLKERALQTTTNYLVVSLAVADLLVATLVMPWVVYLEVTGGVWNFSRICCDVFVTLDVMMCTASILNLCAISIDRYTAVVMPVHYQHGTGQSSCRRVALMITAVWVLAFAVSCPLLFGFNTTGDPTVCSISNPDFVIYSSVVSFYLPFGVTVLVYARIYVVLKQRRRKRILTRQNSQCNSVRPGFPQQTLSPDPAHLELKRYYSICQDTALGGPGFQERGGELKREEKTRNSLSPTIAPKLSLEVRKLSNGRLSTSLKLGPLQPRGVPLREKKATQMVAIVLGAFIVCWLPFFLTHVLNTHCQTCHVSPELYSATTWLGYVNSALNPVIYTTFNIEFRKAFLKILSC
Also: assay procedure not described here.

Row | Compound | AC50 [1] | AC50 [2] | AC50 [3] | AC50 [4] | AC50 [5] | AC50 [6] | AC50 [7] | AC50 [8] | AC50 [9] | AC50 [10]
1 | N[C@@H](Cc1cc(I)c(Oc2cc(I)c(O)c(I)c2)c(I)c1)C(=O)O [LEVOTHYROXINE] | > 30 µM | > 30 µM | > 30 µM | > 30 µM | > 30 µM | > 30 µM | – | – | – | –
2 | CC[N+](CC)(CCNC(=O)C(=O)NCC[N+](CC)(CC)Cc1ccccc1Cl)Cc1ccccc1Cl [AMBENONIUM] | > 30 µM | > 30 µM | > 30 µM | > 30 µM | 1.1 µM | > 30 µM | – | – | – | –
3 | COc1cc2c(cc1OC)C1CC(=O)C(CC(C)C)CN1CC2 (stereo not drawn) [TETRABENAZINE] | – | > 30 µM | > 30 µM | > 30 µM | > 30 µM | > 30 µM | – | – | – | –
4 | CCC[C@@]1(CCc2ccccc2)CC(O)=C([C@H](CC)c2cccc(NS(=O)(=O)c3ccc(C(F)(F)F)cn3)c2)C(=O)O1 | – | > 30 µM | > 30 µM | > 30 µM | > 30 µM | 27 µM | – | – | – | –
5 | C[C@]12CCC(=O)C=C1CC[C@H]1[C@@H]3CC[C@](O)(C(=O)CO)[C@@]3(C)C[C@H](O)[C@@]12F [FLUDROCORTISONE] | > 10 µM | > 30 µM | > 10 µM | > 30 µM | > 30 µM | > 30 µM | – | – | – | –
6 | C[C@H](Nc1ncnc2[nH]cnc12)c1cc2cccc(Cl)c2c(=O)n1-c1ccccc1 [DUVELISIB] | – | > 30 µM | > 30 µM | > 30 µM | > 30 µM | > 30 µM | > 30 µM | > 30 µM | > 30 µM | > 30 µM
7 | CC(=O)SCC(Cc1ccccc1)C(=O)NCC(=O)OCc1ccccc1 (stereo not drawn) [RACECADOTRIL] | > 30 µM | > 30 µM | > 30 µM | > 30 µM | > 30 µM | > 30 µM | – | – | – | –
8 | CN(C)CCc1c[nH]c2ccc(CS(=O)(=O)N3CCCC3)cc12 [ALMOTRIPTAN] | > 30 µM | > 30 µM | 30 µM | > 30 µM | > 30 µM | > 30 µM | – | – | – | –
9 | CC(=O)NC[C@H]1CN(c2ccc(N3CCOCC3)c(F)c2)C(=O)O1 [LINEZOLID] | > 30 µM | > 30 µM | > 30 µM | – | > 30 µM | – | – | – | – | –
10 | c1cnc2cc3c(cc2n1)[C@@H]1CNC[C@H]3C1 [VARENICLINE] | – | > 30 µM | > 30 µM | > 30 µM | > 30 µM | > 30 µM | – | – | – | –
11 | Cn1cnc2c(F)c(Nc3ccc(Br)cc3F)c(C(=O)NOCCO)cc21 [BINIMETINIB] | – | > 30 µM | > 30 µM | > 30 µM | > 30 µM | > 30 µM | – | – | – | –
12 | C[C@@H](O)[C@H]1C(=O)N2C(C(=O)O)=C(SCCN=CN)C[C@H]12 [IMIPENEM ANHYDROUS] | – | > 300 µM | > 300 µM | > 300 µM | > 300 µM | > 300 µM | – | – | – | –

Now from value to compound, other results behind:

Row | AC50 [1] | AC50 [2] | AC50 [3] | AC50 [4] | AC50 [5] | AC50 [6] | Compound | AC50 [7] | AC50 [8] | AC50 [9] | AC50 [10]
13 | 22 µM | > 30 µM | > 30 µM | > 30 µM | > 30 µM | > 30 µM | CC(C)/N=c1\cc2n(-c3ccc(Cl)cc3)c3ccccc3nc-2cc1Nc1ccc(Cl)cc1 [CLOFAZIMINE] | – | – | – | –
14 | > 30 µM | > 30 µM | > 30 µM | > 30 µM | > 30 µM | > 30 µM | CCOC(=O)Nc1ccc(NCc2ccc(F)cc2)nc1N [FLUPIRTINE] | – | – | – | –
15 | > 30 µM | > 30 µM | 19 µM | > 30 µM | > 30 µM | 5.2 µM | CN(C)CCOC(c1ccc(Cl)cc1)c1ccccn1 (stereo not drawn) [CARBINOXAMINE] | – | – | – | –
16 | – | > 30 µM | > 30 µM | > 30 µM | > 30 µM | > 30 µM | CC(C)(CO)c1cc2cc(NC(=O)C3(c4ccc5c(c4)OC(F)(F)O5)CC3)c(F)cc2n1C[C@@H](O)CO [TEZACAFTOR] | – | – | – | –
17 | > 30 µM | > 30 µM | 21 µM | > 30 µM | > 30 µM | > 30 µM | CCN(CC)CCn1c(=O)c(Cc2ccc(OC)cc2)nc2ccccc21 [CAROVERINE] | – | – | – | –
18 | > 10 µM | > 30 µM | 8 µM | > 10 µM | > 10 µM | > 10 µM | OCCOCCN1CCN(C(c2ccccc2)c2ccc(Cl)cc2)CC1 (stereo not drawn) [HYDROXYZINE] | – | – | – | –

From ChEMBL document CHEMBL5291721, “A preclinical secondary pharmacology resource illuminates target-adverse drug reaction associations of marketed drugs” (Nat Commun, 2023)
